Source: patent US8383581B2, “Short-chain peptides as parathyroid hormone (PTH) receptor agonist” (Cadila Healthcare Limited, priority 2009, dated 2013)
Where a SMILES comes first, the peptide text is derived from it. [ ]: non-standard residue; d: D form. ξ: configuration not given here. ξBip(2'-Et-4'-OMe) = CCc1cc(OC)ccc1-c1ccc(CC(N)C(=O)O)cc1; Arg(NO2) = N=C(NCCC[C@H](N)C(=O)O)N[N+](=O)[O-]; ξαMePhe(2,6-F2) = CC(N)(Cc1c(F)cccc1F)C(=O)O; ξαMePhe(2-F) = CC(N)(Cc1ccccc1F)C(=O)O; hhPhe = N[C@@H](CCCc1ccccc1)C(=O)O; hArg = N=C(N)NCCCC[C@H](N)C(=O)O; Nle = CCCC[C@H](N)C(=O)O; Ac5c = NC1(C(=O)O)CCCC1; Ac3c = NC1(C(=O)O)CC1; Aib = CC(C)(N)C(=O)O

Key:
Type in all cases: in vitro ADME
[1] = Stability of peptides in human plasma; conditions: human, plasma; for metabolised at 24 h, 2 μM: pH 7.8
Procedure, shortened: (§1)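 Peptides at 2 μM final incubated 0–24 h at 37 °C (50 mM triethanolamine-HCl, pH 7.8) in each matrix, matrix level set to degrade ~50% PTH(1-34) in 1 h; TFA-quenched, C18 HPLC at 206 nm with ESI-MS peak identification; percent degradation from peak areas at each time point.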

[2] = Stability of peptides in human liver microsomes; conditions: human, microsomes; for % degradation of peptides in 24 h when incubated with liver microsomes: 2 μM, pH 7.8
Procedure, shortened: as §1

[3] = Stability of peptides in simulated gastric fluid (pH 1.5; HCl, NaCl and Pepsin); conditions: pH 1.5; for % degradation of peptides in 24 h when incubated with simulated gastric fluid: 2 μM; for half-life / half-life (t1/2) in simulated gastric fluid: simulated gi fluid
[4] = Stability of peptides in simulated intestinal fluid (pH 7.5); conditions: pH 7.5; for half-life / half-life (t1/2) in simulated intestinal fluid: simulated gi fluid; for % degradation of peptides in 24 h when incubated with simulated intestinal fluid: 2 μM
Procedure, shortened: as §1

Row | SMILES | half-life (t1/2) in human plasma [1] | metabolised at 24 h, 2 μM [1] | half-life [2] | % degradation of peptides in 24 h when incubated with liver microsomes [2] | % degradation of peptides in 24 h when incubated with simulated gastric fluid [3] | half-life [3] | half-life [4] | % degradation of peptides in 24 h when incubated with simulated intestinal fluid [4] | half-life [1] | half-life (t1/2) in simulated gastric fluid [3] | half-life (t1/2) in simulated intestinal fluid [4] | half-life (t1/2) in liver microsomes [2]
1 | CCCC[C@H](NC(=O)C(C)(Cc1ccccc1F)NC(=O)[C@H](CCC(N)=O)NC(=O)[C@@H](NC(=O)[C@H](CCC(=O)O)NC(=O)C(C)(C)NC(=O)[C@@H](NC(=O)C(C)(C)N)C(C)C)[C@@H](C)CC)C(=O)N[C@@H](Cc1c[nH]cn1)C(=O)N[C@@H](CCC(N)=O)C(=O)NC(C)(C)C(=O)NC(C)(C)C(=O)NC(C)(Cc1c(F)cccc1F)C(=O)NC(C)(Cc1ccccc1F)C(N)=O (some centres unmarked) [Seq. ID. 570] (H-[Aib]V[Aib]EIQ[ξαMePhe(2-F)][Nle]HQ[Aib][Aib][ξαMePhe(2,6-F2)][ξαMePhe(2-F)]-NH2) | (9) h | 71% | 0.5 h | 100% | 100% | 0.5 h | 0.5 h | 100% | – | – | – | –
2 | CCCC[C@H](NC(=O)C(C)(Cc1ccccc1F)NC(=O)[C@H](CCC(N)=O)NC(=O)[C@@H](NC(=O)[C@H](CCC(=O)O)NC(=O)C(C)(C)NC(=O)[C@@H](NC(=O)C1(N)CCCC1)C(C)C)[C@@H](C)CC)C(=O)N[C@@H](Cc1c[nH]cn1)C(=O)N[C@@H](CCC(N)=O)C(=O)NC(C)(C)C(=O)NC(C)(C)C(=O)NC(C)(Cc1c(F)cccc1F)C(=O)NC(C)(Cc1c(F)cccc1F)C(N)=O (some centres unmarked) [Seq. ID. 580] (H-[Ac5c]V[Aib]EIQ[ξαMePhe(2-F)][Nle]HQ[Aib][Aib][ξαMePhe(2,6-F2)][ξαMePhe(2,6-F2)]-NH2) | – | 75% | 1 h | 83% | 12% | – | – | 46% | 8 h | (8) h | (6) h | –
3 | CCCC[C@H](NC(=O)C(C)(Cc1c(F)cccc1F)NC(=O)[C@H](CCC(N)=O)NC(=O)[C@@H](NC(=O)[C@H](CCC(=O)O)NC(=O)C(C)(C)NC(=O)[C@@H](NC(=O)C(C)(C)N)C(C)C)[C@@H](C)CC)C(=O)N[C@@H](Cc1c[nH]cn1)C(=O)N[C@@H](CCC(N)=O)C(=O)NC(C)(C)C(=O)NC(C)(C)C(=O)N[C@@H](CCCNC(=N)N[N+](=O)[O-])C(=O)NC(C)(Cc1ccccc1F)C(N)=O (some centres unmarked) [Seq. ID. 590] (H-[Aib]V[Aib]EIQ[ξαMePhe(2,6-F2)][Nle]HQ[Aib][Aib][Arg(NO2)][ξαMePhe(2-F)]-NH2) | – | 0% | – | 35% | 00% | > 24 h | > 24 h | 00% | > 24 h | – | – | (5) h
4 | CCCC[C@H](NC(=O)[C@H](CC(C)C)NC(=O)[C@H](CCC(N)=O)NC(=O)[C@@H](NC(=O)[C@H](CCC(=O)O)NC(=O)C1(NC(=O)[C@@H](NC(=O)C2(N)CC2)C(C)C)CC1)[C@@H](C)CC)C(=O)N[C@@H](Cc1c[nH]cn1)C(=O)N[C@@H](CCC(N)=O)C(=O)N[C@@H](CCCCNC(=N)N)C(=O)N[C@@H](C)C(=O)N[C@@H](CCCCN)C(=O)NC(Cc1ccc(-c2ccc(OC)cc2CC)cc1)C(=O)N[C@@H](CCCc1ccccc1)C(N)=O (some centres unmarked) [Seq. ID. 610] (H-[Ac3c]V[Ac3c]EIQL[Nle]HQ[hArg]AK[ξBip(2'-Et-4'-OMe)][hhPhe]-NH2) | – | 71% | 1 h | 78% | 14% | – | – | 40% | 8 h | (8) h | (6) h | –
5 | CCc1cc(OC)ccc1-c1ccc(CC(NC(=O)[C@H](CCCCN)NC(=O)[C@H](C)NC(=O)[C@H](CCCCNC(=N)N)NC(=O)[C@H](CCC(N)=O)NC(=O)[C@H](Cc2c[nH]cn2)NC(=O)[C@H](CCSC)NC(=O)[C@H](CC(C)C)NC(=O)[C@H](CCC(N)=O)NC(=O)[C@@H](NC(=O)[C@H](CCC(=O)O)NC(=O)C(C)(C)NC(=O)[C@@H](NC(=O)C2(N)CCCC2)C(C)C)[C@@H](C)CC)C(N)=O)cc1 (some centres unmarked) [Seq. ID. 650] (H-[Ac5c]V[Aib]EIQLMHQ[hArg]AK[ξBip(2'-Et-4'-OMe)]-NH2) | – | 70% | 1 h | 77% | 15% | – | – | 41% | 8 h | (8) h | (6) h | –
6 | CCCC[C@H](NC(=O)[C@H](CC(C)C)NC(=O)[C@H](CCC(N)=O)NC(=O)[C@@H](NC(=O)[C@H](CCC(=O)O)NC(=O)C1(NC(=O)[C@@H](NC(=O)C2(N)CC2)C(C)C)CC1)[C@@H](C)CC)C(=O)N[C@@H](Cc1c[nH]cn1)C(=O)N[C@@H](CCC(N)=O)C(=O)N[C@@H](CCCCNC(=N)N)C(=O)N[C@@H](C)C(=O)N[C@@H](CCCNC(=N)N[N+](=O)[O-])C(=O)NC(Cc1ccc(-c2ccc(OC)cc2CC)cc1)C(=O)N[C@@H](CCCc1ccccc1)C(N)=O (some centres unmarked) [Seq. ID. 690] (H-[Ac3c]V[Ac3c]EIQL[Nle]HQ[hArg]A[Arg(NO2)][ξBip(2'-Et-4'-OMe)][hhPhe]-NH2) | – | 70% | 1 h | 78% | 12% | – | – | 42% | 8 h | (8) h | (6) h | –
7 | CCCC[C@H](NC(=O)C(C)(Cc1c(F)cccc1F)NC(=O)[C@H](CCC(N)=O)NC(=O)[C@@H](NC(=O)[C@H](CCC(=O)O)NC(=O)C1(NC(=O)[C@@H](NC(=O)C2(N)CCCC2)C(C)C)CC1)[C@@H](C)CC)C(=O)N[C@@H](Cc1c[nH]cn1)C(=O)N[C@@H](CCC(N)=O)C(=O)N[C@@H](CCCCNC(=N)N)C(=O)N[C@@H](C)C(=O)N[C@@H](CCCNC(=N)N[N+](=O)[O-])C(=O)NC(C)(Cc1c(F)cccc1F)C(=O)N[C@@H](CCCc1ccccc1)C(N)=O (some centres unmarked) [Seq. ID. 710] (H-[Ac5c]V[Ac3c]EIQ[ξαMePhe(2,6-F2)][Nle]HQ[hArg]A[Arg(NO2)][ξαMePhe(2,6-F2)][hhPhe]-NH2) | – | 0% | – | 35% | 00% | > 24 h | > 24 h | 00% | > 24 h | – | – | (5) h
